From ChEMBL document CHEMBL6127099, “Stimuli-responsive prodrugs with self-immolative linker for improved cancer therapy” (Eur J Med Chem, 2024) come the findings set out here.

In this series the target is NAD(P)H dehydrogenase [quinone] 1 (Homo sapiens, UniProt P15559). Kind of series: Prodrug activation assessed as NQO1 (unknown origin)-mediated RSSH release by measuring rate constant.
Sequence of NAD(P)H dehydrogenase [quinone] 1 (P15559 whole entry): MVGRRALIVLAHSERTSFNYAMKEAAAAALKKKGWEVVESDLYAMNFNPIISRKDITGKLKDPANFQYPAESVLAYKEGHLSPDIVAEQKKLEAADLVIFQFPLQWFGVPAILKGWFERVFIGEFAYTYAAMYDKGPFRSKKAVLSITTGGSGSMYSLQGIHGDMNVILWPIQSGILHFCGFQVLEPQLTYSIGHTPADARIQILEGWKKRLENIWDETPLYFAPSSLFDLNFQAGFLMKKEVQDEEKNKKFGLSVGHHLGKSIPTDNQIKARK
Take `CN1CCN(C)C1=O`: the K came out at 0.212 min⁻¹. The result for `COC(=O)[C@H](NC(C)=O)C(C)(C)SSC(=O)N(C)CCN(C)C(=O)CC(C)(C)C1=C(C)C(=O)C(C)=C(C)C1=O` reads 0.17 min⁻¹; that for `Cc1c(C)c2c(c(C)c1O)C(C)(C)CC(=O)O2`, 0.32 min⁻¹; that for `COC(=O)[C@H](NC(C)=O)C(C)(C)SSCc1ccc(N(C)C(=O)CC(C)(C)C2=C(C)C(=O)C(C)=C(C)C2=O)cc1`, 0.162 min⁻¹.
